Source: article PMC6382819, “Design strategy for serine hydroxymethyltransferase probes based on retro-aldol-type reaction” (Nature Communications, 2019)

What was measured:
[1] = target: T1, hSHMT1 (Homo sapiens, UniProt P34896); assay: enzyme kinetics with recombinant hSHMT1 (retro-aldol turnover, fluorescence); assay type: biochemical
T1 construct: gene SHMT1
T1 sequence (P34896 2-483): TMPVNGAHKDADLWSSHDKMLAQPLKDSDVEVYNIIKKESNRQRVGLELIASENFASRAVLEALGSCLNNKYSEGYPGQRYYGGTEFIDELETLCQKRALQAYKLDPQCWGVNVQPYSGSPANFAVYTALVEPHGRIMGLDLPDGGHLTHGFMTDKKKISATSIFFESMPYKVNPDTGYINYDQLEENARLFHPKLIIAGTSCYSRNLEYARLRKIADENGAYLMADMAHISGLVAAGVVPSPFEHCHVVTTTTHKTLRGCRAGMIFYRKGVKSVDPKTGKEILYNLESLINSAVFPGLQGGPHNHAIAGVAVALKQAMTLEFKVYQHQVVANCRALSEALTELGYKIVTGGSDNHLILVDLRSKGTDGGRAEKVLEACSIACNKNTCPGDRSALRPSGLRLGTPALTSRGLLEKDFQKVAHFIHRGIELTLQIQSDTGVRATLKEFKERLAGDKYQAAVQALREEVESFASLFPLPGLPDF

[2] = target: T1, hSHMT1; assay: ITC; also DSF thermal shift and HPLC Ser-Gly conversion inhibition (IC50 […]); assay type: binding
[3] = target: T1, hSHMT1; assay: enzyme kinetics with recombinant hSHMT1 (UV absorption; […] NMR turnover); assay type: biochemical

Compound `CN(C)c1ccc2cc([C@H](O)[C@H](N)C(=O)O)ccc2c1` [compound 1, fluorescent probe 1] has a Km [1] of 1.81 ± 0.19 mM.
With `O=C(O)CCC(=O)Nc1ccc(-c2ccnc(-c3ccc(NC(=O)CCC(=O)O)cc3)n2)cc1` [Hit 1] the Kd [2] was 2000 nM.
In the case of `N[C@H](C(=O)O)[C@@H](O)c1ccc(F)cc1` [compound 2, 19F NMR probe 2], the Km [3] is reported as 2.75 ± 0.27 mM.
